# Test results reported in publication PMC5540273, “Progress towards a public chemogenomic set for protein kinases and a call for contributions” (PLoS ONE, 2017).
# Assays:
# Assay in all cases: KINOMEscan competition binding
# CHEK2 = CHEK2 (Homo sapiens, UniProt O96017); conditions: read-out: %Inh CHEK2
# CDK2 = CDK2 (Homo sapiens, UniProt P24941); conditions: read-out: %Inh CDK2
# ACVR1 = biological target: T1, ACVR1 (Homo sapiens, UniProt Q04771); conditions: read-out: %Inh ACVR1
# T1 sequence (Q04771 21-509): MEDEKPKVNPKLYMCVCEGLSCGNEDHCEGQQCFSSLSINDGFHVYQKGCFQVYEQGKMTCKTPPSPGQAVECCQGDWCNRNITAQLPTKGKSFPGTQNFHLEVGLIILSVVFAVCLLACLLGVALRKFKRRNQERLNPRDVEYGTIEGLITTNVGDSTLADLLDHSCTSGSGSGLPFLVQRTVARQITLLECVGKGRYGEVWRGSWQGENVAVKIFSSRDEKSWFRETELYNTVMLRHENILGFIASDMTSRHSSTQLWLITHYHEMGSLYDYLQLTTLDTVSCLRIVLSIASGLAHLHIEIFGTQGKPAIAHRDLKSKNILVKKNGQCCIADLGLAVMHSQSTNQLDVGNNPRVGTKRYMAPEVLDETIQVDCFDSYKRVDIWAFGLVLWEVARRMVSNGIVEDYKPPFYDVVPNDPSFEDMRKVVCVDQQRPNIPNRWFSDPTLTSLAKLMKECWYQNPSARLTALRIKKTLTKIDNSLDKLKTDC
# INSR = INSR (Homo sapiens, UniProt P06213); conditions: read-out: %Inh INSR
# Sequence of INSR (P06213 28-1382): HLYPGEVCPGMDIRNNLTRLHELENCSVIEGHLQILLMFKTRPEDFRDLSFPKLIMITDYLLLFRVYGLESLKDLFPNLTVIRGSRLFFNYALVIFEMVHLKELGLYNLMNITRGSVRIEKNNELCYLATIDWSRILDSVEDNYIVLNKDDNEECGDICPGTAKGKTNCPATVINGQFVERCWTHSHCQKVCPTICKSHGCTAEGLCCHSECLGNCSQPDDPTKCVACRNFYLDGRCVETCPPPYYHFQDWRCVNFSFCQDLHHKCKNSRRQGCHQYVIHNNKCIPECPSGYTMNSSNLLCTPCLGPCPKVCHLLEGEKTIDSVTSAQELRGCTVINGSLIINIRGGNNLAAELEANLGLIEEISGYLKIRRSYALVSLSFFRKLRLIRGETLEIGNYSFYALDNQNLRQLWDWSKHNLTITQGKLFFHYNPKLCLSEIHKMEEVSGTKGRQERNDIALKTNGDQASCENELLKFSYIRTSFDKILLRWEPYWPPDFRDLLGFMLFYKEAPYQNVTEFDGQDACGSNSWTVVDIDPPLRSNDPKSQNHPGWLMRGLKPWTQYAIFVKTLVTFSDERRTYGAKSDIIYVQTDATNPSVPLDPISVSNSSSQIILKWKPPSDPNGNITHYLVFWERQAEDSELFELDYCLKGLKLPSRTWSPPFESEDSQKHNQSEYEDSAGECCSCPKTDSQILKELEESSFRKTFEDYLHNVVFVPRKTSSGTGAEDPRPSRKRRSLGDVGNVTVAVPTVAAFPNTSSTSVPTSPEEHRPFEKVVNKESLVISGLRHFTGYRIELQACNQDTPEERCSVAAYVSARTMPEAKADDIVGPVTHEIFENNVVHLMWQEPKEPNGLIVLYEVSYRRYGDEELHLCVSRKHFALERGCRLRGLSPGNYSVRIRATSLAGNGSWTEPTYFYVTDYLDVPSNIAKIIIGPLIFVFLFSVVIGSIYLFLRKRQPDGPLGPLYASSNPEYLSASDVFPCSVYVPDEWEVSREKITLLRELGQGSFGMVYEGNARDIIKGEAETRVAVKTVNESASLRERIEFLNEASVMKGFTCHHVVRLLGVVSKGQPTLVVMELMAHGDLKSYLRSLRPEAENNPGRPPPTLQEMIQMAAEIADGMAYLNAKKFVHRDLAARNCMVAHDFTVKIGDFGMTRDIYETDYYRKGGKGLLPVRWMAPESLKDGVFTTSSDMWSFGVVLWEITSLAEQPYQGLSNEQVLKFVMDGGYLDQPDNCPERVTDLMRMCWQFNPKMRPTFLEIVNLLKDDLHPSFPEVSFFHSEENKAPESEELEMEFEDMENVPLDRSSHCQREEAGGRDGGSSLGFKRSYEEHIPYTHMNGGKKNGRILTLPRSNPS
# ASK2 = biological target: T2, ASK2 (Homo sapiens, UniProt O95382); conditions: read-out: %Inh ASK2
# T2 sequence (O95382 1-1288): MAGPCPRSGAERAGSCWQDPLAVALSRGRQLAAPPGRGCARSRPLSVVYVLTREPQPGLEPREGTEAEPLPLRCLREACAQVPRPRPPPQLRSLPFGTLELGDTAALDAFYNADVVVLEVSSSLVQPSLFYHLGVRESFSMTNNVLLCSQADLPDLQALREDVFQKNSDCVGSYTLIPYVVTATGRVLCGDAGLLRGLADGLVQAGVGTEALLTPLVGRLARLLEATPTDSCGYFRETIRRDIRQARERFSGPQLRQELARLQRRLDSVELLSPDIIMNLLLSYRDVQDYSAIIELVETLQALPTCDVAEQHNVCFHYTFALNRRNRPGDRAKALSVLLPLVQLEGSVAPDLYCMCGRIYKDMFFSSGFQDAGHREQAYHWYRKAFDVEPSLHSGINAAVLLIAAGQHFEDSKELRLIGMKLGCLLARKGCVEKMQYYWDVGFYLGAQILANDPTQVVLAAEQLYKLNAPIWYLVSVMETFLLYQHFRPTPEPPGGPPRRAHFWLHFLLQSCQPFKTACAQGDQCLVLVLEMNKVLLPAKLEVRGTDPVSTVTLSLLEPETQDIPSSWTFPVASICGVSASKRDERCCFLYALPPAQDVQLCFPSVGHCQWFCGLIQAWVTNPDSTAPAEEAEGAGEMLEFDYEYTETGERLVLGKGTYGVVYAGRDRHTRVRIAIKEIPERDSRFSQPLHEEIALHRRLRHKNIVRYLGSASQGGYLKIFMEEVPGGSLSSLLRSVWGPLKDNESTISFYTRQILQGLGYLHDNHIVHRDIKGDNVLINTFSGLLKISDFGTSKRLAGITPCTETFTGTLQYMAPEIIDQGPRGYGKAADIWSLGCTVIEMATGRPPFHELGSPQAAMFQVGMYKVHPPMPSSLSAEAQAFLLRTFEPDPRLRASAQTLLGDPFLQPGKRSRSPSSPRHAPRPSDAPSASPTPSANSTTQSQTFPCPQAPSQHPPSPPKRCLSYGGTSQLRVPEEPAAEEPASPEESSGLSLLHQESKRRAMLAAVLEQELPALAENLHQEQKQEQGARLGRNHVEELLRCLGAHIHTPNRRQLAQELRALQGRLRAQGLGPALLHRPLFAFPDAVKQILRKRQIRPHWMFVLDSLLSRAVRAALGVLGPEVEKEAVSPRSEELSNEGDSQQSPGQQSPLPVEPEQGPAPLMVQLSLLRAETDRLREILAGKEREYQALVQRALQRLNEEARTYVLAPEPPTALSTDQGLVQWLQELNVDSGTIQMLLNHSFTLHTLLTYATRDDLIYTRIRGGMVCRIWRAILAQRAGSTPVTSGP
# DRAK2 = biological target: T3, DRAK2 (Homo sapiens, UniProt O94768); conditions: read-out: %Inh DRAK2
# T3 sequence (O94768 1-372): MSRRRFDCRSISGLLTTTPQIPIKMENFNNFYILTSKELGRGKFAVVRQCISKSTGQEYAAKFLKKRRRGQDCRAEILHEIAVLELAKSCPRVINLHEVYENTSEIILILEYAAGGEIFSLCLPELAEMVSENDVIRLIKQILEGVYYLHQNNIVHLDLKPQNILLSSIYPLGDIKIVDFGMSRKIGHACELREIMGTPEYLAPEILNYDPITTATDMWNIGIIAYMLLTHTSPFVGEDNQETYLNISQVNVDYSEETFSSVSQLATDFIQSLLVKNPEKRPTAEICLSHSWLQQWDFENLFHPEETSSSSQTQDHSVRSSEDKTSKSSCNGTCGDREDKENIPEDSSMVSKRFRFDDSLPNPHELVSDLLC
# JNK2 = JNK2 (Homo sapiens, UniProt P45984); conditions: read-out: %Inh JNK2
# Sequence of JNK2 (P45984 whole entry): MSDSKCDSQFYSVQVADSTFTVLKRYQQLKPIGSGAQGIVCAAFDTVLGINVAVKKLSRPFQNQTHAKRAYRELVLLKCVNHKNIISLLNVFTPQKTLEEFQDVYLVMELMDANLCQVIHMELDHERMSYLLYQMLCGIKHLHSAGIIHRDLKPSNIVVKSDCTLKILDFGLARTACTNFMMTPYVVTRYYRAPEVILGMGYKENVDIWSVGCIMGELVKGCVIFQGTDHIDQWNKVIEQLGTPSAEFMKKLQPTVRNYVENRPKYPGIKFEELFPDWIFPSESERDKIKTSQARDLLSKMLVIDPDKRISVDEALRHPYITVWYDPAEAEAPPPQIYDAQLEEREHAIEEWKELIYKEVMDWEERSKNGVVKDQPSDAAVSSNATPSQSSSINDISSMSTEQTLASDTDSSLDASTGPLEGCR
# Sequence of CHEK2 (O96017 whole entry): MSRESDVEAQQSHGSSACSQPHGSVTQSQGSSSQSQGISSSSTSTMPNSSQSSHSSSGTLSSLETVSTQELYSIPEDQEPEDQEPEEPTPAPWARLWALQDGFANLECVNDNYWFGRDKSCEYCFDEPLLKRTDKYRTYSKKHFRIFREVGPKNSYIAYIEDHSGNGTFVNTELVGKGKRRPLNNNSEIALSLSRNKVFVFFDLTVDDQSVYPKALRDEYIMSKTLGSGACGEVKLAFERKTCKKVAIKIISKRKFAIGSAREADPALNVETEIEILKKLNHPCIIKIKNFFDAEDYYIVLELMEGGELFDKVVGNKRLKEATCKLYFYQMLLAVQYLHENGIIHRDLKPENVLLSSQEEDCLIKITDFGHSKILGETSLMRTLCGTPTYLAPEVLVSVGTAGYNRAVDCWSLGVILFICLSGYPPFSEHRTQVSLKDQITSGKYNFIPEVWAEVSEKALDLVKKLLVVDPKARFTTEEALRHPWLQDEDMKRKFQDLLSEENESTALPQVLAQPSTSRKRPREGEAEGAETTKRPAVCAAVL
smiles,measurement,setting,value
COc1cccc(OC)c1C(=O)Nc1cccc(-c2nn3ccccc3c2-c2ccnc(Nc3cccc(F)c3)n2)c1 [UNC10225310A],inhibition at 1 µM,CHEK2,0%
same,inhibition at 1 µM,CDK2,0%
same,inhibition at 1 µM,ACVR1,17%
same,inhibition at 1 µM,INSR,0%
same,inhibition at 1 µM,ASK2,0%
same,inhibition at 1 µM,DRAK2,12%
same,inhibition at 1 µM,JNK2,0%
Cc1ccc(NC(=O)Nc2cccc(C(F)(F)F)c2)cc1 [UNC10225187A],inhibition at 1 µM,CHEK2,0%
same,inhibition at 1 µM,CDK2,0%
same,inhibition at 1 µM,ACVR1,10%
same,inhibition at 1 µM,INSR,0%
same,inhibition at 1 µM,ASK2,0%
same,inhibition at 1 µM,DRAK2,0%
same,inhibition at 1 µM,JNK2,26%
O=c1cc(N2CCOCC2)nc2n(Cc3cccc(Cl)c3Cl)c(C3CC3)nn12 [UNC10225469A],inhibition at 1 µM,CHEK2,0%
same,inhibition at 1 µM,CDK2,0%
same,inhibition at 1 µM,ACVR1,0%
same,inhibition at 1 µM,INSR,0%
same,inhibition at 1 µM,ASK2,0%
same,inhibition at 1 µM,DRAK2,9%
same,inhibition at 1 µM,JNK2,0%
CS(=O)(=O)Cc1ccc(Nc2nccc(-c3c(-c4cccc(NC(=O)C5CCCCC5)c4)nn4ncccc34)n2)cc1 [UNC10225159A],inhibition at 1 µM,CHEK2,0%
same,inhibition at 1 µM,CDK2,0%
same,inhibition at 1 µM,ACVR1,18%
same,inhibition at 1 µM,INSR,42%
same,inhibition at 1 µM,ASK2,34%
same,inhibition at 1 µM,DRAK2,0%
same,inhibition at 1 µM,JNK2,49%
Cn1cc(-c2cnc(N)c3c(-c4ccc5c(c4)CCN5C(=O)Cc4ccccc4)csc23)cn1 [UNC10225012A],inhibition at 1 µM,CHEK2,0%
same,inhibition at 1 µM,CDK2,0%
same,inhibition at 1 µM,ACVR1,7%
same,inhibition at 1 µM,INSR,12%
same,inhibition at 1 µM,ASK2,17%
same,inhibition at 1 µM,DRAK2,9%
same,inhibition at 1 µM,JNK2,0%
